T/C data for 22 compounds are collected here from PubChem BioAssay AID200 (DTP/NCI, 2004).

This assay concerns B6C3F1 mice, B16 melanoma ip, median survival T/C. The assay is described as follows: NCI In Vivo Anticancer Drug Screen. Data for tumor model B16 Melanoma (intraperitoneal) in B6C3F1 mice. The conditions noted are these: endpoint: median survival time, schedule: Q01DX009 (ip), higher = longer survival. In a few lines:
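Readout: survival or tumor size in treated mice relative to vehicle controls (T/C). Model uses transplantable tumors grown in mice.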

[1] abbreviates: dose: 12.5 mg/kg/injection, vehicle: saline with Tween-80.
Where [2] appears, read: dose: 25.0 mg/kg/injection, vehicle: saline with Tween-80.
The mark [3] stands for this setting: dose: 50.0 mg/kg/injection, vehicle: saline with Tween-80.
Setting [4] is: dose: 100.0 mg/kg/injection, vehicle: saline with Tween-80.
Setting [5] is: dose: 12.5 mg/kg/injection, vehicle: Klucel (hydroxypropylcellulose) (HPC).
[6] abbreviates: dose: 25.0 mg/kg/injection, vehicle: Klucel (hydroxypropylcellulose) (HPC).
Where [7] appears, read: dose: 50.0 mg/kg/injection, vehicle: Klucel (hydroxypropylcellulose) (HPC).
Setting [8] is: dose: 100.0 mg/kg/injection, vehicle: Klucel (hydroxypropylcellulose) (HPC).
Setting [9] is: dose: 200.0 mg/kg/injection, vehicle: Klucel (hydroxypropylcellulose) (HPC).
Setting [10] is: dose: 25.0 mg/kg/injection, vehicle: saline.
[11] abbreviates: dose: 50.0 mg/kg/injection, vehicle: saline.
The mark [12] stands for this setting: dose: 100.0 mg/kg/injection, vehicle: saline.
Where [13] appears, read: dose: 8.0 micrograms/kg/injection, vehicle: saline.
[14] abbreviates: dose: 16.0 micrograms/kg/injection, vehicle: saline.
Setting [15] is: dose: 200.0 mg/kg/injection, vehicle: saline with Tween-80.

Values joined by “and” are separate entries in the source; they are usually repeats but may differ in a detail not shown here. Identical values can stand only once. Toxic doses and inconclusive results are not listed. *1 amine or outer side, *2 acyl side, *3 side chain or, on linkers, in order; H or OH if unused. Where a SMILES comes first, the peptide text is derived from it. Bridges are numbered along the chain shown (N, C = ends). Roman numbers before positions name the chains, in order. [ ]: non-standard residue; d: D form. The star is where a group is joined. ξ: configuration not given here. Quinaldoyl(3-OH,6-OMe) = COc1ccc2nc(C(=O)*)c(O)cc2c1; X6 = CCC(=O)OC1CC=NN([*:1])C1C(=O)[*:2]; X7 = CC(=O)OC1CC=NN([*:1])C1C(=O)[*:2]; ξNMeVal(3-OH) = CNC(C(=O)O)C(C)(C)O; Sar = CNCC(=O)O

`Cn1c(N)c(N=Nc2ccccc2Cl)c(=O)n(C)c1=O`: the T/C (dose: 6.25 mg/kg/injection, vehicle: saline with Tween-80) was 92 % of control; the T/C under setting [1] was 101 % of control; the T/C under setting [2] is 89 % of control; the T/C under setting [3] is 92 % of control and 104 % of control; the T/C under setting [4] is 104 % of control.

For the compound `CC(C)CC1C(=O)N2CCCC2C2(O)OC(NC(=O)C3C=C4c5cccc6[nH]cc(c56)CC4N(C)C3)(C(C)C)C(=O)N12` (stereo not given), the T/C runs as follows: (dose: 2.5 mg/kg/injection, vehicle: Klucel (hydroxypropylcellulose) (HPC)) 120 % of control; (dose: 5.0 mg/kg/injection, vehicle: Klucel (hydroxypropylcellulose) (HPC)) 111 % of control; (dose: 10.0 mg/kg/injection, vehicle: Klucel (hydroxypropylcellulose) (HPC)) 109 % of control; (dose: 20.0 mg/kg/injection, vehicle: Klucel (hydroxypropylcellulose) (HPC)) 98 % of control; (dose: 40.0 mg/kg/injection, vehicle: Klucel (hydroxypropylcellulose) (HPC)) 105 % of control.

With `COC12C(COC(=O)NCCO)C3=C(C(=O)C(C)=C(N)C3=O)N1CC1NC12` (stereo not given), the T/C is, setting by setting: (dose: 3.13 mg/kg/injection, vehicle: Klucel (hydroxypropylcellulose) (HPC)) 110 % of control; under setting [5], 205 % of control; under setting [6], 121 % of control.

Take `Oc1c(Cl)cc(Cl)cc1C1N2CCCCC2C2c3cccn3-c3ccccc3N21` (stereo not given): the T/C runs as follows: under setting [5], 101 % of control; under setting [6], 98 % of control; under setting [7], 104 % of control; under setting [8], 98 % of control; under setting [9], 87 % of control.

As for `C[C@]12CCC(=O)C(O)=C1CC[C@@H]1[C@@H]2CC[C@]2(C)C(=O)CC[C@@H]12`, the T/C was 88 % of control and 95 % of control under setting [5]; 97 % of control under setting [6]; 97 % of control and 102 % of control under setting [7]; 92 % of control and 98 % of control under setting [8]; 94 % of control and 95 % of control under setting [9]; 87 % of control and 93 % of control (dose: 400.0 mg/kg/injection, vehicle: Klucel (hydroxypropylcellulose) (HPC)).

Consider `CCCCC(C)(CCN)CCCC`, for which the T/C runs as follows: under setting [10], 105 % of control; under setting [11], 122 % of control; under setting [12], 101 % of control.

Consider `CC1OC2CC(=O)OC2C2=C1C(=O)c1cc(-c3cc(O)c4c(c3)C(=O)C3=C(C4=O)C4OC(=O)CC4OC3C)cc(O)c1C2=O` (stereo not given), for which, under “dose: 0.5 mg/kg/injection, vehicle: other”, the T/C is 90 % of control.

As for `Cc1c(N)nc(C(CC(N)=O)NCC(N)C(N)=O)nc1C(=O)NC(C(=O)NC(C)C(O)CC(=O)NC(C(=O)NC(OC1OC(C)C(N)C(O)C1O)C(O)c1nc(-c2nc(C(=O)NCCCC(N)CC(=O)NCCCNCCCCN)cs2)cs1)C(C)O)C(OC1OC(CO)C(O)C(O)C1OC1OC(CO)C(O)C(OC(N)=O)C1O)c1cnc[nH]1` (stereo not given), under “dose: 0.5 mg/kg/injection, vehicle: saline”, the T/C is 120 % of control.

Consider `CC(=O)NC(Cc1cc(I)c(O)c(I)c1)C(=O)O` (stereo not given), for which the T/C under setting [11] is 121 % of control; the T/C under setting [12] is 89 % of control; the T/C (dose: 200.0 mg/kg/injection, vehicle: saline) was 92 % of control; the T/C (dose: 400.0 mg/kg/injection, vehicle: saline) is 102 % of control.

Take `C=C(C)C(=O)N(C)C(C)C(=O)OC1CC(=O)N(C)c2cc(cc(OC)c2Cl)C(OC)C(C)=C/C=C/C(OC)C2(O)CC(OC(=O)N2)C(C)C2OC12C` (stereo not given): the T/C is 169 % of control under setting [13]; 182 % of control under setting [14]; 180 % of control (dose: 32.0 micrograms/kg/injection, vehicle: saline).

Take `CN1C(=O)C(=Cc2ccc(O)cc2)C(=O)N(C)C1=O`: the T/C under setting [1] is 97 % of control; the T/C under setting [2] is 99 % of control; the T/C under setting [3] is 101 % of control; the T/C under setting [4] was 104 % of control; the T/C under setting [15] is 94 % of control.

`Cc1ccc(S(=O)(=O)NC(=S)S)cc1`: the T/C runs as follows: under setting [1], 92 % of control; under setting [2], 92 % of control; under setting [3], 95 % of control; under setting [4], 97 % of control; under setting [15], 94 % of control.

With `CC(C)(O)/C=C/C(=O)[C@](C)(O)[C@H]1[C@H](O)C[C@@]2(C)[C@@H]3CC=C4[C@@H](C[C@H](O)C(=O)C4(C)C)[C@]3(C)C(=O)C[C@]12C`, the T/C (dose: 0.5 mg/kg/injection, vehicle: saline + Tween-80 + alcohol) is 102 % of control and the T/C (dose: 1.0 mg/kg/injection, vehicle: saline + Tween-80 + alcohol) was 98 % of control.

As for `C/C=C1\C[C@@H]2C(OC)Nc3cc(O)c(OC)cc3C(=O)N2C1` (stereo not given in full), the T/C is, setting by setting: (dose: 0.03 mg/kg/injection, vehicle: suspension in saline) 103 % of control; (dose: 0.06 mg/kg/injection, vehicle: suspension in saline) 109 % of control; (dose: 0.12 mg/kg/injection, vehicle: suspension in saline) 106 % of control.

With `COC1/C=C/O[C@@]2(C)Oc3c(C)c(O)c4c(O)c(cc(O)c4c3C2=O)NC(=O)/C(C)=C\C=C\[C@H](C)C(O)[C@@H](C)[C@@H](O)[C@@H](C)[C@H](OC(C)=O)[C@@H]1C` (stereo not given in full), the T/C by setting is: under setting [1], 95 % of control; under setting [2], 97 % of control; under setting [3], 93 % of control; under setting [4], 95 % of control.

Consider `CC(=O)CC(=O)CCC(=O)O`, for which the T/C is, setting by setting: under setting [10], 97 % of control; under setting [11], 97 % of control; under setting [12], 93 % of control.

In the case of `NC(CNc1ccc(O)cc1)C(=O)O` (stereo not given), the T/C (dose: 75.0 mg/kg/injection, vehicle: saline) is 111 % of control; the T/C under setting [12] was 103 % of control; the T/C (dose: 150.0 mg/kg/injection, vehicle: saline) is 101 % of control.

As to `O=C1OCC2(C(=O)O)C(=O)OCC12` (stereo not given), the T/C by setting is: under setting [1], 105 % of control; under setting [2], 100 % of control; under setting [3], 101 % of control; under setting [4], 104 % of control; under setting [15], 90 % of control.

`Nc1ccc2ccc(N)cc2c1`: the T/C is, setting by setting: under setting [2], 109 % of control; under setting [3], 109 % of control; under setting [4], 116 % of control; under setting [15], 105 % of control.

For `CCC(=O)OC1CC=NN2C(=O)C(NC(=O)c3nc4ccc(OC)cc4cc3O)COC(=O)C(C(C)(C)O)N(C)C(=O)CN(C)C(=O)CNC(=O)C3C(OC(C)=O)CC=NN3C(=O)C(NC(=O)c3nc4ccc(OC)cc4cc3O)COC(=O)C(C(C)(C)O)N(C)C(=O)CN(C)C(=O)CNC(=O)C12` (stereo not given) (I: {Quinaldoyl(3-OH,6-OMe)}-S[X6]G[Sar][ξNMeVal(3-OH)] / II: {Quinaldoyl(3-OH,6-OMe)}-S[X7]G[Sar][ξNMeVal(3-OH)]; ester I:1-II:C, I:C-II:1; configuration not given here), the T/C by setting is: (dose: 4.0 micrograms/kg/injection, vehicle: saline) 98 % of control; under setting [13], 105 % of control; under setting [14], 111 % of control.

As for `CO[C@H]1C[C@H](O[C@H]2CC[C@@]3(C)[C@H](CC[C@@H]4[C@@H]3CC[C@]3(C)[C@@H](C5=CC(=O)OC5)CC[C@]43O)C2)O[C@H](C)[C@H]1O`, the T/C was 88 % of control (dose: 1.9 mg/kg/injection, vehicle: Klucel (hydroxypropylcellulose) (HPC)); 100 % of control (dose: 2.8 mg/kg/injection, vehicle: Klucel (hydroxypropylcellulose) (HPC)); 102 % of control (dose: 4.3 mg/kg/injection, vehicle: Klucel (hydroxypropylcellulose) (HPC)); 94 % of control (dose: 6.4 mg/kg/injection, vehicle: Klucel (hydroxypropylcellulose) (HPC)).

`CC1C(=O)c2cc3c(cc2CCN(C)Cc2c1ccc1c2OCO1)OCO3` (stereo not given): the T/C is 100 % of control (dose: 5.0 mg/kg/injection, vehicle: saline with Tween-80); 104 % of control (dose: 10.0 mg/kg/injection, vehicle: saline with Tween-80); 103 % of control (dose: 20.0 mg/kg/injection, vehicle: saline with Tween-80).
